Laboratory results published in the Kinase Knowledgebase extract (Sharma et al. 2016).

Biological target: CDK2 (human) (UniProt P24941)
Assay: Enzyme Assay

| Compound | IC50 [nM] |
| --- | --- |
| CCOC(=O)c1cc(-c2csc(CS(=O)(=O)c3ccccc3)n2)c(=O)[nH]c1CC | < 500 |
| Cc1[nH]c(=O)c(-c2csc(-c3ccnc(NCc4ccccn4)c3)n2)cc1C(=O)NCc1ccccn1 | < 500 |
| CCOC(=O)c1cc(-c2csc(-c3ccnc(Cl)c3)n2)c(=O)[nH]c1C | < 500 |
| CCOC(=O)c1cc(-c2csc(-c3ccnc(NC)c3)n2)c(=O)[nH]c1C | < 500 |
| CCOC(=O)c1cc(-c2csc(-c3ccncc3)n2)c(=O)[nH]c1C(C)C | < 500 |
| CCOC(=O)c1cc(-c2csc(-c3ccnc(NCc4ccccc4)c3)n2)c(=O)[nH]c1C | < 500 |
| CCOC(=O)c1cc(-c2csc(CS(=O)(=O)c3ccccc3)n2)c(=O)[nH]c1C1CC1 | < 500 |
| CCOC(=O)c1cc(-c2csc(-c3ccncc3)n2)c(=O)[nH]c1CC | < 500 |
| CCOC(=O)c1cc(-c2csc(CS(=O)(=O)c3cccs3)n2)c(=O)[nH]c1CC | < 500 |
| CCOC(=O)c1cc(-c2csc(-c3ccnc(NCCc4cccs4)c3)n2)c(=O)[nH]c1C | < 500 |
| CCOC(=O)c1cc(-c2csc(-c3ccnc(NCc4ccccn4)c3)n2)c(=O)[nH]c1C | < 500 |
| CCc1ccc(-c2csc(-c3ccncc3)n2)c(=O)[nH]1 | < 500 |
| CCOC(=O)c1cc(-c2csc(C(C)(C)S(=O)(=O)c3ccccc3)n2)c(=O)[nH]c1C | < 500 |
| CCOC(=O)c1cc(-c2csc(-c3ccnc(NCCNC(C)C)c3)n2)c(=O)[nH]c1C | < 500 |
| CCOC(=O)c1cc(-c2csc(CS(=O)(=O)c3ccccc3)n2)c(=O)[nH]c1COCc1ccccc1 | < 500 |
| CCOC(=O)c1cc(-c2csc(CSc3ccccc3)n2)c(=O)[nH]c1C | < 500 |
| CCOC(=O)c1cc(-c2csc(-c3ccnc(NCC4CCCC4)c3)n2)c(=O)[nH]c1C | < 500 |
| CCOC(=O)c1cc(-c2csc(CS(=O)(=O)Cc3ccc(F)cc3)n2)c(=O)[nH]c1C | < 500 |
| CCOC(=O)c1cc(-c2csc(-c3ccnc(N)c3)n2)c(=O)[nH]c1C | < 500 |
| CCCc1[nH]c(=O)c(-c2csc(CS(=O)(=O)c3cccs3)n2)cc1C(=O)OCC | < 500 |
| CCCc1[nH]c(=O)c(-c2csc(CS(=O)(=O)c3ccccc3)n2)cc1C(=O)OCC | < 500 |
| CCOC(=O)c1cc(-c2csc(-c3ccnc(NCC(C)C)c3)n2)c(=O)[nH]c1C | < 500 |
| CCOC(=O)c1cc(-c2csc(-c3ccncc3)n2)c(=O)[nH]c1C | < 500 |
| CCOC(=O)c1cc(-c2csc(NC)n2)c(=O)[nH]c1C | < 500 |
| CCCCNc1cc(-c2nc(-c3cc(C(=O)OCC)c(C)[nH]c3=O)cs2)ccn1 | < 500 |

| Compound | IC50 [nM] |
| --- | --- |
| CCc1[nH]c(=O)c(-c2csc(-c3ccncc3)n2)cc1C(=O)OCCN1CCCC1 | < 500 |
| Cc1[nH]c(=O)c(-c2csc(-c3ccncc3)n2)cc1Br | < 500 |
| CCOC(=O)c1cc(-c2csc(CS(=O)(=O)c3ccccn3)n2)c(=O)[nH]c1C | < 500 |
| CCCc1[nH]c(=O)c(-c2csc(-c3ccncc3)n2)cc1C(=O)OCC | < 500 |
| CCOC(=O)c1cc(-c2csc(-c3ccnc(NCCN(CC)CC)c3)n2)c(=O)[nH]c1C | < 500 |
| Cc1[nH]c(=O)c(-c2csc(-c3ccncc3)n2)cc1C(=O)OC(C)(C)C | < 500 |
| CCOC(=O)c1cc(-c2csc(CS(=O)(=O)c3ccccc3)n2)c(=O)[nH]c1C | < 500 |
| CCN(CC)CCCOC(=O)c1cc(-c2csc(-c3ccncc3)n2)c(=O)[nH]c1C(C)C | < 500 |
| CCc1[nH]c(=O)c(-c2csc(-c3ccncc3)n2)cc1C(=O)OCCCN(CC)CC | < 500 |
| CCOC(=O)c1cc(-c2csc(-c3ccnc(CC)c3)n2)c(=O)[nH]c1C | < 500 |
| CC(C)c1ccc(-c2csc(-c3ccncc3)n2)c(=O)[nH]1 | < 500 |
| CCOC(=O)c1cc(-c2csc(-c3c(Cl)cncc3Cl)n2)c(=O)[nH]c1C | < 500 |
| CCOC(=O)c1cc(-c2csc(-c3ccnc(NCc4cccnc4)c3)n2)c(=O)[nH]c1C | < 500 |
| CCOC(=O)c1cc(-c2csc(-c3ccnc(NCCNC(C)=O)c3)n2)c(=O)[nH]c1C | < 500 |
| CCOC(=O)c1cc(-c2csc(CS(=O)(=O)c3cccs3)n2)c(=O)[nH]c1C | < 500 |
| CCOC(=O)c1cc(-c2csc(-c3ccnc(NC)c3)n2)c(=O)[nH]c1C(C)C | < 500 |
| CCOC(=O)c1cc(-c2csc(CS(=O)(=O)c3ccc(Cl)cc3)n2)c(=O)[nH]c1C | < 500 |
| CCOC(=O)c1cc(-c2csc(-c3ccnc(NCC(N)=O)c3)n2)c(=O)[nH]c1C | < 500 |
| CCOC(=O)c1cc(-c2csc(CS(=O)(=O)c3cccs3)n2)c(=O)[nH]c1C(C)C | < 500 |
| CCOC(=O)c1cc(-c2csc(-c3ccnc(NCC4CC4)c3)n2)c(=O)[nH]c1C | < 500 |
| CCOC(=O)c1cc(-c2csc(-c3ccnc(NCc4ccco4)c3)n2)c(=O)[nH]c1C | < 500 |
| CCOC(=O)c1cc(-c2csc(-c3ccncc3)n2)c(=O)[nH]c1COCc1ccccc1 | < 500 |
| Cc1[nH]c(=O)c(-c2csc(-c3ccnc(NCC4CC4)c3)n2)cc1C(=O)NCC1CC1 | < 500 |
| CCOC(=O)c1cc(-c2csc(CS(=O)(=O)c3ccccc3)n2)c(=O)[nH]c1C(C)C | < 500 |
